In assay [1] the test system is group I PAKs in EBC1 cells (MEK1 phosphorylation at S298). The assay can be described thus: Cellular PAK IC50 Assay: MEK1 phosphorylation at S298 by HTRF. In kind it is cell-based. To be noted: Homo sapiens, EBC-1, 2 h treatment, media containing 0.1% FBS, phospho-MEK1 (S298) HTRF. How it is done:
Cellular PAK IC50 Assay Protocol
Group I PAKs (PAK1-3) are activated upon binding to the Rho GTPases, Rac1 and Cdc42. Activated group I PAKs phosphorylate MEK1 at Serine 298 (S298), one of the two sites in the catalytic domain that is important for stable association between Raf and MEK1 and subsequent MAPK activation. The inhibition of group I PAKs in EBC1 cells is assessed by detecting changes in the level of MEK1 phosphorylation at S298 using homogenous time-resolved fluorescence (HTRF). Inhibitory activity was estimated by treating 2×10^4 EBC1 cells for 2 h with PAK inhibitors in media containing 0.1% FBS. Following inhibitor treatment, cells were lysed with 25 μL of 1× cellular kinase lysis buffer (Cisbio) containing 1× cellular kinase blocking reagent (Cisbio). Cellular lysis was carried out at 4° C. for 2 h with constant shaking before lysate (16 μL) was transferred to white 384-well ProxiPlates™ (Perkin Elmer). Anti-total MEK1 antibody labeled with Europium cryptate donor (1 ng/well) (Cell Signaling Technologies catalog number 2352) and anti-phospho MEK1 (S298) antibody labeled with d2 acceptor (Cell Signaling Technologies catalog number 9128) (10 ng/well) were prepared in 1× detection buffer (CisBio) and added to each well of the assay plate and allowed to incubate at RT overnight. The following day the fluorescence emission from each well was measured in EnVision® (Perkin Elmer) at an excitation of 330 nm and dual emission wavelengths of 615 nm and 665 nm. The signal in each well at 665 nm was multiplied by 10,000 and divided by the signal in the same well at 615 nm to obtain a ratio. Ratio values ([665·10,000]÷615) were plotted as a function of the concentration of compound to determine IC50 values.
Background: In TR-FRET formats the signal depends on donor and acceptor labels being close together.

Assay [2] has as its target human recombinant PAK1-KD protein (Homo sapiens, UniProt Q13153). The assay can be described thus: PAK1-KD (Kinase Domain) IC50 Zlyte Assay (FRET peptide substrate phosphorylation). As to conditions: Z'-LYTE, Biological Example 1.

human recombinant PAK1-KD protein, sequence (Q13153 270-521 limits assumed): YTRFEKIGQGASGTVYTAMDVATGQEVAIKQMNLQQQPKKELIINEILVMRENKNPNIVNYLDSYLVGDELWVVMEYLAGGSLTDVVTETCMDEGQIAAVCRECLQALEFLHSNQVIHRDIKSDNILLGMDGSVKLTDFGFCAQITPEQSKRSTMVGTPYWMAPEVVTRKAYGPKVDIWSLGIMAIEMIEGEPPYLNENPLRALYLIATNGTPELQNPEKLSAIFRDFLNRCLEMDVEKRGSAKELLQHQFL

On to `CCNc1ncc2cc(-c3ccc(-c4cncc(C)n4)cc3Cl)c(=O)n(CC(=O)N3CCNCC3)c2n1` [Example I-8, 6-(2-Chloro-4-(6-methylpyrazin-2-yl)phenyl)-2-(ethylamino)-8-(2-oxo-2-(piperazin-1-yl)ethyl)pyrido[2,3-d]pyrimidin-7(8H)-one], for which the midpoint of inhibition in assay [1], the IC50, lay at 1500 nM. Besides, in assay [2], the Ki was found to be 30.9 nM.
In assay [1], `CCNc1ncc2cc(-c3ccc(-c4cccc(C)n4)cc3Cl)c(=O)n(CCOCCN)c2n1` [Example I-64, 8-[2-(2-Aminoethoxy)ethyl]-6-[2-chloro-4-(6-methyl-2-pyridyl)phenyl]-2-(ethylamino)pyrido[2,3-d]pyrimidin-7-one] came in with an IC50 of 35.7 nM. In addition, the Ki in assay [2] is 2.8 nM.
The corresponding values for `CCNc1ncc2cc(-c3ccc(-c4cncc(C)n4)cc3Cl)c(=O)n(C3COC4(CCNC4)C3)c2n1` (stereo not shown) [Example I-75, 6-[2-Chloro-4-(6-methylpyrazin-2-yl)phenyl]-2-(ethylamino)-8-(1-oxa-7-azaspiro[4.4]nonan-3-yl)pyrido[2,3-d]pyrimidin-7-one] are 197 nM and 20.3 nM.
The corresponding values for `CCNc1ncc2cc(-c3ccc(-c4cncc(C)n4)cc3Cl)c(=O)n(CCOC3CCNC3)c2n1` (stereo not shown) [Example I-13, 6-(2-Chloro-4-(6-methylpyrazin-2-yl)phenyl)-2-(ethylamino)-8-(2-(pyrrolidin-3-yloxy)ethyl)pyrido[2,3-d]pyrimidin-7(8H)-one] are 180 nM and 5.8 nM.
The corresponding values for `CCNc1ncc2cc(-c3ccc(-c4cncc(C)n4)cc3Cl)c(=O)n(CCCN)c2n1` [Example I-1, 8-(3-Aminopropyl)-6-[2-chloro-4-(6-methylpyrazin-2-yl)phenyl]-2-(ethylamino)pyrido[2,3-d]pyrimidin-7-one] are 249 nM and 8.23 nM.
`CCNc1ncc2cc(-c3ccc(-c4cncc(C)n4)cc3Cl)c(=O)n(CCOC3CCNC3)c2n1` (single isomer, unassigned) [Example I-52] showed an IC50 in assay [1] of 156 nM. In assay [2], the inhibition constant (Ki) amounted to 5.6 nM.
For `CCNc1ncc2cc(-c3ccc(-c4cncc(C)n4)cc3Cl)c(=O)n(CCC3CNCCO3)c2n1` (single isomer, unassigned) [Example I-22], in assay [1], the half-maximal inhibitory concentration (IC50) is 63.5 nM. In addition, the Ki in assay [2] was found to be 8.9 nM.
On to `CCNc1ncc2cc(-c3ccc(-c4cncc(C)n4)cc3Cl)c(=O)n(CCN3CCNCC3)c2n1` [Example I-4, 6-(2-Chloro-4-(6-methylpyrazin-2-yl)phenyl)-2-(ethylamino)-8-(2-(piperazin-1-yl)ethyl)pyrido[2,3-d]pyrimidin-7(8H)-one], for which, in assay [1], 96 nM corresponded to half-maximal inhibition (IC50). Further, in assay [2], the Ki stood at 6.4 nM.
For `CNc1ncc2cc(-c3ccc(-c4cncc(C)n4)cc3Cl)c(=O)n(CCCN)c2n1` [Example I-18, 8-(3-Aminopropyl)-6-[2-chloro-4-(6-methylpyrazin-2-yl)phenyl]-2-(methylamino)pyrido[2,3-d]pyrimidin-7-one], in that order: 508 nM and 13.7 nM.
For `CCNc1ncc2cc(-c3ccc(-c4cncc(C)n4)cc3Cl)c(=O)n(C[C@H]3CC[C@H](N(C)C)CC3)c2n1` [Example I-10, 6-(2-Chloro-4-(6-methylpyrazin-2-yl)phenyl)-8-(((1r,4r)-4-(dimethylamino)cyclohexyl)methyl)-2-(ethylamino)pyrido[2,3-d]pyrimidin-7(8H)-one], in that order: 274 nM and 21.3 nM.
Regarding `CCNc1ncc2cc(-c3ccc(-c4cccc(C)n4)cc3C)c(=O)n(CCOC3CNC3)c2n1` [Example I-31, 8-(2-(azetidin-3-yloxy)ethyl)-2-(ethylamino)-6-(2-methyl-4-(6-methylpyridin-2-yl)phenyl)pyrido[2,3-d]pyrimidin-7(8H)-one], the IC50 in assay [1] is 127 nM. In addition, in assay [2], the Ki came to 4.6 nM.
The corresponding values for `Cc1cncc(-c2ccc(-c3cc4cnc(N)nc4n(C[C@H]4CC[C@H](N)CC4)c3=O)c(Cl)c2)n1` [Example I-9, 2-Amino-8-(((1r,4r)-4-aminocyclohexyl)methyl)-6-(2-chloro-4-(6-methylpyrazin-2-yl)phenyl)pyrido[2,3-d]pyrimidin-7(8H)-one] are 358 nM and 14 nM.
In assay [1], `CCNc1ncc2cc(-c3ccc(-c4cncc(C)n4)cc3Cl)c(=O)n(CCCCN)c2n1` [Example I-2, 8-(4-Aminobutyl)-6-[2-chloro-4-(6-methylpyrazin-2-yl)phenyl]-2-(ethylamino)pyrido[2,3-d]pyrimidin-7-one] displayed an IC50 of 146 nM.
Turning to `Cc1cccc(-c2ccc(-c3cc4cnc(NCC(F)F)nc4n(CCN4CCNCC4)c3=O)c(Cl)c2)n1` [Example I-89, 6-[2-Chloro-4-(6-methyl-2-pyridyl)phenyl]-2-(2,2-difluoroethylamino)-8-(2-piperazin-1-ylethyl)pyrido[2,3-d]pyrimidin-7-one], the IC50 in assay [1] came to 57.7 nM. Further, the Ki in assay [2] came out at 7.8 nM.
The corresponding values for `Cc1cccc(-c2ccc(-c3cc4cnc(N)nc4n(CCC4CNCCO4)c3=O)c(Cl)c2)n1` (racemic) [Example I-127, 2-Amino-6-[2-chloro-4-(6-methyl-2-pyridyl)phenyl]-8-(2-morpholin-2-ylethyl)pyrido[2,3-d]pyrimidin-7-one] are 38.2 nM and 3.8 nM.
For `CCNc1ncc2cc(-c3ccc(-c4cncc(C)n4)cc3Cl)c(=O)n(CC(C)OC3CNC3)c2n1` (single isomer, unassigned) [Example I-91, 8-[2-(Azetidin-3-yloxy)propyl]-6-[2-chloro-4-(6-methylpyrazin-2-yl)phenyl]-2-(ethylamino)pyrido[2,3-d]pyrimidin-7-one], in that order: 108 nM and 7.1 nM.
The compound `CCNc1ncc2cc(-c3ccc(-c4cncc(C)n4)cc3Cl)c(=O)n(C[C@H]3CC[C@H](NC)CC3)c2n1` [Example I-17, 6-(2-Chloro-4-(6-methylpyrazin-2-yl)phenyl)-2-(ethylamino)-8-(((1r,4r)-4-(methylamino)cyclohexyl)methyl)pyrido[2,3-d]pyrimidin-7(8H)-one] returned an IC50 in assay [1] of 96 nM. In assay [2], the Ki amounted to 4.8 nM.
With `CCNc1ncc2cc(-c3ccc(-c4cccc(C)n4)cc3Cl)c(=O)n(C[C@H]3CC[C@H](N)CC3)c2n1` [Example I-15, 8-(((1r,4r)-4-Aminocyclohexyl)methyl)-6-(2-chloro-4-(6-methylpyridin-2-yl)phenyl)-2-(ethylamino)pyrido[2,3-d]pyrimidin-7(8H)-one], in assay [1], the IC50 was 46.8 nM.
Still for that read-out and setting: the same measure for `CCNc1ncc2cc(-c3ccc(-c4cncc(C)n4)cc3Cl)c(=O)n(CC3CCNCC3)c2n1` [Example I-6, 6-(2-Chloro-4-(6-methylpyrazin-2-yl)phenyl)-2-(ethylamino)-8-(piperidin-4-ylmethyl)pyrido[2,3-d]pyrimidin-7(8H)-one]: 170 nM; for `CCNc1ncc2cc(-c3ccc(-c4cncc(C)n4)cc3Cl)c(=O)n(C[C@H]3CC[C@H](N)CC3)c2n1` [Example I-5, 8-(((1r,4r)-4-aminocyclohexyl)methyl)-6-(2-chloro-4-(6-methylpyrazin-2-yl)phenyl)-2-(ethylamino)pyrido[2,3-d]pyrimidin-7(8H)-one]: 147 nM.
On to `CCNc1ncc2cc(-c3ccc(-c4cccc(C)n4)cc3C)c(=O)n(CCOCCN)c2n1` [Example I-76, 8-[2-(2-Aminoethoxy)ethyl]-2-(ethylamino)-6-[2-methyl-4-(6-methyl-2-pyridyl)phenyl]pyrido[2,3-d]pyrimidin-7-one], for which the Ki in assay [2] worked out at 3.3 nM.

Usually IC50 stands for the concentration at which inhibition is half-maximal. Higher therefore signals weaker potency in that assay. What is called Ki is the dissociation constant of the complex between target and ligand, obtained from inhibition or displacement.

The values are drawn from patent US20150031674A1, “SERINE/THREONINE KINASE INHIBITORS” (GENENTECH, INC., priority 2013, published 2015).
